In the supplement of paper PMC10307832:

Key:
Test in all cases: relative viability (nuclei count vs DMSO), 5 days (fraction); higher = more cells survive
Elesclomol + Palbociclib = compound: CN(NC(=O)CC(=O)NN(C)C(=S)c1ccccc1)C(=S)c1ccccc1 [Elesclomol] + CC(=O)c1c(C)c2cnc(Nc3ccc(N4CCNCC4)cn3)nc2n(C2CCCC2)c1=O [Palbociclib] (partner 0.5 µM)
How it was run: (§1)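 Lung cancer cell lines in 1536-well plates were dosed by pin tool the day after seeding, either with one drug alone or with a fixed anchor-drug dose plus five library-drug doses (not always all listed) in √10 steps. After 5 days, cells were fixed and their nuclei stained in one step (final 0.05% Triton X-100, 1% formaldehyde, 1 ug/ml Hoechst), then counted on 4× images. Relative viability is the nuclei count in treated wells divided by that in vehicle wells. Values are medians of duplicate plates.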

Elesclomol + Lapatinib = compound: CN(NC(=O)CC(=O)NN(C)C(=S)c1ccccc1)C(=S)c1ccccc1 [Elesclomol] + CS(=O)(=O)CCNCc1ccc(-c2ccc3ncnc(Nc4ccc(OCc5cccc(F)c5)c(Cl)c4)c3c2)o1 [Lapatinib] (partner 2 µM)
How it was run: as §1

Elesclomol + Trametinib = compound: CN(NC(=O)CC(=O)NN(C)C(=S)c1ccccc1)C(=S)c1ccccc1 [Elesclomol] + CC(=O)Nc1cccc(-n2c(=O)n(C3CC3)c(=O)c3c(Nc4ccc(I)cc4F)n(C)c(=O)c(C)c32)c1 [Trametinib] (partner 0.02 µM)
How it was run: as §1

Elesclomol + Pictilisib = compound: CN(NC(=O)CC(=O)NN(C)C(=S)c1ccccc1)C(=S)c1ccccc1 [Elesclomol] + CS(=O)(=O)N1CCN(Cc2cc3nc(-c4cccc5[nH]ncc45)nc(N4CCOCC4)c3s2)CC1 [Pictilisib] (partner 1 µM)
How it was run: as §1

Elesclomol + Luminespib = compound: CN(NC(=O)CC(=O)NN(C)C(=S)c1ccccc1)C(=S)c1ccccc1 [Elesclomol] + CCNC(=O)c1noc(-c2cc(C(C)C)c(O)cc2O)c1-c1ccc(CN2CCOCC2)cc1 [Luminespib] (partner 0.01 µM)
How it was run: as §1

Row | Cell Line | relative viability (Elesclomol + Palbociclib; first compound 0.003162 µM) | relative viability (Elesclomol + Palbociclib; first compound 0.01 µM) | relative viability (Elesclomol + Palbociclib; first compound 0.03162 µM) | relative viability (Elesclomol + Palbociclib; first compound 0.1 µM) | relative viability (Elesclomol + Lapatinib; first compound 0.003162 µM) | relative viability (Elesclomol + Lapatinib; first compound 0.01 µM) | relative viability (Elesclomol + Lapatinib; first compound 0.03162 µM) | relative viability (Elesclomol + Lapatinib; first compound 0.1 µM) | relative viability (Elesclomol + Trametinib; first compound 0.003162 µM) | relative viability (Elesclomol + Trametinib; first compound 0.01 µM) | relative viability (Elesclomol + Trametinib; first compound 0.03162 µM) | relative viability (Elesclomol + Trametinib; first compound 0.1 µM) | relative viability (Elesclomol + Pictilisib; first compound 0.003162 µM) | relative viability (Elesclomol + Pictilisib; first compound 0.01 µM) | relative viability (Elesclomol + Pictilisib; first compound 0.03162 µM) | relative viability (Elesclomol + Pictilisib; first compound 0.1 µM) | relative viability (Elesclomol + Luminespib; first compound 0.003162 µM) | relative viability (Elesclomol + Luminespib; first compound 0.01 µM) | relative viability (Elesclomol + Luminespib; first compound 0.03162 µM) | relative viability (Elesclomol + Luminespib; first compound 0.1 µM)
1 | HCC-366 | 0.393 | 0.393 | 0.0812 | 0.0176 | 1.07 | 1.06 | 0.563 | 0.015 | 0.383 | 0.311 | 0.114 | 0.0129 | 0.135 | 0.123 | 0.211 | 0.0502 | – | – | – | –
2 | HCC-827 | 0.471 | 0.436 | 0.428 | 0.626 | 0.178 | 0.206 | 0.194 | 0.188 | 0.571 | 0.442 | 0.555 | 0.504 | 1.03 | 0.988 | 1.04 | 0.811 | 0.586 | 0.54 | 0.579 | 0.473
3 | HOP-62 | 0.461 | 0.333 | 0.305 | 0.144 | 1.17 | 0.872 | 0.811 | 0.251 | 0.397 | 0.385 | 0.386 | 0.237 | 0.694 | 0.269 | 0.582 | 0.239 | 0.877 | 0.892 | 0.962 | 0.554
4 | IA-LM | – | – | – | – | 0.658 | 0.201 | 0.121 | 0.0621 | – | – | – | – | 0.275 | 0.126 | 0.052 | 0.0237 | – | – | – | –
5 | LC-2-ad | 0.482 | 0.409 | 0.223 | 0.193 | 0.876 | 0.334 | 0.111 | 0.0969 | 0.888 | 0.811 | 0.272 | 0.197 | 0.419 | 0.195 | 0.102 | 0.0937 | 0.497 | 0.47 | 0.33 | 0.265
6 | LCLC-97TM1 | 0.189 | 0.193 | 0.277 | 0.129 | 0.575 | 0.299 | 0.687 | 0.0906 | 0.198 | 0.192 | 0.195 | 0.0969 | 0.173 | 0.118 | 0.115 | 0.0666 | 0.791 | 0.877 | 0.781 | 0.247
7 | LCLC-103H | 0.482 | 0.481 | 0.471 | 0.517 | – | – | – | – | 0.637 | 0.671 | 0.686 | 0.683 | 0.628 | 0.471 | 0.736 | 0.457 | 0.903 | 0.734 | 1.01 | 0.435
8 | LK-2 | – | 0.717 | 0.695 | 0.0756 | 0.698 | 0.22 | 0.17 | 0.0799 | 0.468 | 0.454 | 0.428 | 0.115 | 0.418 | 0.177 | 0.149 | 0.117 | 0.197 | 0.172 | 0.178 | 0.136
9 | LOU-NH91 | 0.518 | 0.566 | 0.535 | 0.508 | 0.733 | 0.669 | 0.574 | 0.478 | 0.814 | 0.733 | 0.769 | 0.643 | 0.447 | 0.511 | 0.45 | 0.424 | 0.334 | 0.339 | 0.33 | 0.28
10 | LU99A | 0.394 | 0.269 | 0.408 | 0.179 | 1.02 | – | 0.921 | 0.135 | 0.618 | 0.371 | 0.58 | 0.339 | 0.316 | – | 0.325 | 0.137 | 0.264 | 0.21 | 0.227 | 0.189
11 | LXF-289 | 0.627 | 0.561 | 0.548 | 0.36 | 0.925 | 0.881 | 0.876 | 0.677 | 0.676 | 0.65 | 0.663 | 0.423 | 0.781 | 0.709 | 0.749 | 0.501 | 0.676 | 0.661 | 0.691 | 0.316
12 | NCI-H23 | 0.531 | 0.413 | 0.269 | 0.127 | 1.12 | – | 0.799 | 0.139 | 0.426 | 0.404 | 0.208 | 0.117 | 0.536 | – | 0.366 | 0.147 | 0.171 | 0.17 | 0.154 | 0.164
13 | NCI-H322M | 0.387 | 0.381 | 0.331 | 0.246 | 0.563 | – | 0.624 | 0.399 | 0.497 | 0.423 | 0.298 | 0.217 | 0.478 | – | 0.519 | 0.382 | 0.311 | 0.288 | 0.231 | 0.14
14 | NCI-H358 | 0.132 | 0.105 | 0.0798 | 0.0844 | 0.272 | 0.244 | 0.209 | 0.184 | 0.107 | 0.103 | 0.0862 | 0.0746 | 0.24 | 0.196 | 0.191 | 0.163 | 0.194 | 0.141 | 0.137 | 0.117
15 | NCI-H441 | 0.253 | 0.22 | 0.126 | 0.081 | – | – | – | – | 0.498 | 0.456 | 0.418 | 0.0766 | 0.424 | 0.364 | 0.183 | 0.0824 | 0.312 | 0.446 | 0.29 | 0.111
16 | NCI-H522 | 1.16 | 0.819 | 0.894 | 0.632 | – | – | – | – | 0.698 | 0.792 | 0.821 | 0.403 | – | – | – | – | 0.958 | 1.02 | 1.06 | 0.625
17 | NCI-H596 | – | – | – | – | 1.04 | 1.11 | 1.03 | 0.381 | 0.798 | 0.865 | 0.368 | 0.237 | 0.374 | 0.341 | 0.346 | 0.218 | 0.845 | 0.924 | 0.787 | 0.186
18 | SW 900 | 0.531 | 0.453 | 0.168 | 0.0979 | – | – | – | – | 0.902 | 0.399 | 0.197 | 0.14 | – | – | – | – | 0.173 | 0.132 | 0.17 | 0.139
